Consider 24 compounds from US12195490B2, “STRAD-binding agents and uses thereof” (The Regents of the University of California, priority 2020, dated 2025).

The target of assay [1] is T1, LKB1 (Homo sapiens, UniProt Q15831+Q7RTN6).
T1 sequence (Q15831 1-433): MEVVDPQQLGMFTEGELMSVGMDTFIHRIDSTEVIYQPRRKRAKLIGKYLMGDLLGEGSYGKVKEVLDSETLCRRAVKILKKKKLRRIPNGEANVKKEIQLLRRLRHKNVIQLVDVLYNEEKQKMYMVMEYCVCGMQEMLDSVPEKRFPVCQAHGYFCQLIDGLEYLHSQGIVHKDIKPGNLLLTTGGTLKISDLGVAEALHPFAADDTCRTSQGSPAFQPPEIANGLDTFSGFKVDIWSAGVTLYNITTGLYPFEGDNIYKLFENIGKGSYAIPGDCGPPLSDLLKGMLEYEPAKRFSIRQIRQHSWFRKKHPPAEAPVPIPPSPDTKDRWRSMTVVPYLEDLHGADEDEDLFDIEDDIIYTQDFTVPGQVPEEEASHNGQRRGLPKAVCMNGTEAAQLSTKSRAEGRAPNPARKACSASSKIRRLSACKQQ
T1 sequence (Q7RTN6 1-431): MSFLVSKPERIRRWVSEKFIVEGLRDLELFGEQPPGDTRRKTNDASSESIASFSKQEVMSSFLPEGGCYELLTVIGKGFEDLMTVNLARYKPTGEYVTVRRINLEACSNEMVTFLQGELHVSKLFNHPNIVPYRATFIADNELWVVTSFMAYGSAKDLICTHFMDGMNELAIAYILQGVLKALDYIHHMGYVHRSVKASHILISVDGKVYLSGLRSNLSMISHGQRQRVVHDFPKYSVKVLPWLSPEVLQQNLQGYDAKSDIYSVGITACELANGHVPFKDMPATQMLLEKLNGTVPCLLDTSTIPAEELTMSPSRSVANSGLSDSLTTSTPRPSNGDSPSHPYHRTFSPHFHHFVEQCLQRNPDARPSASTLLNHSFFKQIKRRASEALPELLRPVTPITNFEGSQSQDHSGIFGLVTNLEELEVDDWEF
T1 sequence (Q9Y376 1-341 partner): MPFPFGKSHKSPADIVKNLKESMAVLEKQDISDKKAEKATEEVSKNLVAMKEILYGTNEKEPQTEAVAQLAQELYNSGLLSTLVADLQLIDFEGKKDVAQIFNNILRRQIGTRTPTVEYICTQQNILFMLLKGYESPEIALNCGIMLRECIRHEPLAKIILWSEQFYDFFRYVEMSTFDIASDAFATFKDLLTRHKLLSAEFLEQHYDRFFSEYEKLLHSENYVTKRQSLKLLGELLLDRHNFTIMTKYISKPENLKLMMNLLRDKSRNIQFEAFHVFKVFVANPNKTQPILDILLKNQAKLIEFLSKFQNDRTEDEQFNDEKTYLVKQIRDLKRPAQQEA
The experiment in a line: in vitro LKB1 functional activity. The conditions noted are these: APA analogs. It counts as biochemical.

In assay [2] the test system is most sensitive cancer cell line. The experiment in a line: cell activity: CTG anti-proliferation in most sensitive cancer cell line. It counts as cell-based. The conditions noted are these: APA analogs.

The term IC50 denotes the concentration that inhibits the measured activity by half. Consider `Cc1ccc(-c2cnc(N)c(C(=O)Nc3ccc(S(N)(=O)=O)cc3)n2)cc1` [SU20668-0197, 3-amino-N-(4-sulfamoylphenyl)-6-p-tolylpyrazine-2-carboxamide], for which the “LKB1 % Act. Increase” value in assay [1] is recorded as “B (B=399-2000%)”. Also, in assay [2], the IC50 was under 3000 nM.

Consider `Cc1ccc(-c2cnc(N)c(C(=O)Nc3ccc(S(N)(=O)=O)c(F)c3)n2)cc1` [SU20668-0305, 3-amino-N-(3-fluoro-4-sulfamoylphenyl)-6-p-tolylpyrazine-2-carboxamide], for which the “LKB1 % Act. Increase” value in assay [1] is given as “C (C=199-1000%)”. Moreover, in assay [2], the IC50 was under 3000 nM.

As for `CCOP(=O)(C[S@SP3](=O)(=O)c1ccc(NC(=O)c2nc(-c3ccc(C)cc3)cnc2N)cc1)OCC` [SU20668-0313, diethyl (((4-(3-amino-6-(p-tolyl)pyrazine-2-carboxamido)phenyl)sulfonyl)methyl)phosphonate], the “LKB1 % Act. Increase” value in assay [1] was “C (C=199-1000%)”. Also, the IC50 in assay [2] was under 3000 nM.

For `CC(=O)N[S@SP3](=O)(=O)c1ccc(NC(=O)c2nc(-c3ccc(C)cc3)cnc2N)cc1` [SU20668-0314, N-(4-(N-acetylsulfamoyl)phenyl)-3-amino-6-p-tolylpyrazine-2-carboxamide], the “LKB1 % Act. Increase” value in assay [1] is “C (C=199-1000%)”. The same compound yielded an IC50 in assay [2] of 3000 to 50000 nM.

For `COP(=O)(CS(=O)(=O)c1ccc(NC(=O)c2nc(-c3ccc(C)cc3)cnc2N)cc1)OC` [SU20668-0329, dimethyl (4-(3-amino-6-p-tolylpyrazine-2-carboxamido)phenylsulfonyl)methylphosphonate], in assay [1], the “LKB1 % Act. Increase” value was “A (A=>4000%)”. The compound further came in with an IC50 in assay [2] of under 3000 nM.

As to `CC(=O)NS(=O)(=O)c1ccc(NC(=O)c2nc(-c3ccc(C)s3)cnc2N)cc1` [SU20668-0349, N-(4-(N-acetylsulfamoyl)phenyl)-3-amino-6-(5-methylthiophen-2-yl)pyrazine-2-carboxamide], the “LKB1 % Act. Increase” value in assay [1] was “C (C=199-1000%)”. Besides, the IC50 in assay [2] fell in the range of 3000 to 50000 nM.

For `CC(=O)NS(=O)(=O)c1ccc(NC(=O)c2nc(-c3cc(F)ccc3C#N)cnc2N)cc1` [SU20668-0371, N-(4-(N-acetylsulfamoyl)phenyl)-3-amino-6-(2-cyano-5-fluorophenyl)pyrazine-2-carboxamide], in assay [1], the “LKB1 % Act. Increase” value is recorded as “A (A=>4000%)”. The compound further came in with an IC50 in assay [2] of 3000 to 50000 nM.

As to `CCOP(=O)(CS(=O)(=O)c1ccc(NC(=O)c2nc(-c3ccc(C)cc3)cnc2N)cc1F)OCC` [SU20668-0482, diethyl (4-(3-amino-6-p-tolylpyrazine-2-carboxamido)-2-fluorophenylsulfonyl)methylphosphonate], in assay [1], the “LKB1 % Act. Increase” value is “D (D=<1000%)”.

For `CC(=O)NS(=O)(=O)c1ccc(NC(=O)c2nc(-c3ccc(C)cc3)cnc2N)cc1F` [SU20668-0483], the “LKB1 % Act. Increase” value in assay [1] was “D (D=<1000%)”.

Take `Cc1ccc(-c2cnc(N)c(C(=O)Nc3ccc(S(=O)(=O)CP(=O)(OC(C)C)OC(C)C)cc3)n2)cc1` [SU20668-0484, diisopropyl (4-(3-amino-6-p-tolylpyrazine-2-carboxamido)phenylsulfonyl)methylphosphonate]: the “LKB1 % Act. Increase” value in assay [1] is “D (D=<1000%)”.

Regarding `CCOP(=O)(OCC)C(F)S(=O)(=O)c1ccc(NC(=O)c2nc(-c3ccc(C)cc3)cnc2N)cc1` (stereo not shown) [SU20668-0485], in assay [2], the IC50 was under 3000 nM.

As for `CCOP(=O)(OCC)C(C)(C)S(=O)(=O)c1ccc(NC(=O)c2nc(-c3ccc(C)cc3)cnc2N)cc1` [SU20668-0486, diethyl 2-(4-(3-amino-6-p-tolylpyrazine-2-carboxamido)phenylsulfonyl)propan-2-ylphosphonate], the “LKB1 % Act. Increase” value in assay [1] is recorded as “B (B=399-2000%)”.

As for `CCOP(=O)(CS(=O)(=O)c1ccc(NC(=O)c2nc(-c3ccc(C(F)(F)F)cc3)cnc2N)cc1)OCC` [SU20668-0488, diethyl (4-(3-amino-6-(4-(trifluoromethyl)phenyl)pyrazine-2-carboxamido)phenylsulfonyl)methylphosphonate], the “LKB1 % Act. Increase” value in assay [1] is given as “D (D=<1000%)”.

As for `Cc1ccc(-c2cnc(N)c(C(=O)Nc3ccc(S(C)(=N)=O)cc3)n2)cc1` (stereo not shown) [SU20668-0490], the “LKB1 % Act. Increase” value in assay [1] was “C (C=199-1000%)”.

With `CCP(=O)(CC)CS(=O)(=O)c1ccc(NC(=O)c2nc(-c3ccc(C)cc3)cnc2N)cc1` [SU20668-0491, 3-amino-N-(4-((diethylphosphoryl)methylsulfonyl)phenyl)-6-p-tolylpyrazine-2-carboxamide], the “LKB1 % Act. Increase” value in assay [1] was “B (B=399-2000%)”.

For `Cc1ccc(-c2cnc(N)c(C(=O)Nc3ccc(S(=O)(=O)CP(C)(C)=O)cc3)n2)cc1` [SU20668-0492, 3-amino-N-[4-(dimethylphosphorylmethylsulfonyl)phenyl]-6-(p-tolyl)pyrazine-2-carboxamide], the “LKB1 % Act. Increase” value in assay [1] is reported as “B (B=399-2000%)”.

In the case of `COP(=O)(CS(=O)(=O)c1ccc(NC(=O)c2nc(-c3ccc(C)c(O)c3)cnc2N)cc1)OC` [SU20668-0496, dimethyl (4-(3-amino-6-(3-hydroxy-4-methylphenyl)pyrazine-2-carboxamido)phenylsulfonyl)methylphosphonate], the “LKB1 % Act. Increase” value in assay [1] is recorded as “C (C=199-1000%)”.

Turning to `Cc1ccc(-c2cnc(N)c(C(=O)Nc3ccc(S(=O)(=O)CC4CCO4)cc3)n2)cc1` (stereo not shown) [SU20668-0500, 3-amino-N-(4-(oxetan-2-ylmethylsulfonyl)phenyl)-6-p-tolylpyrazine-2-carboxamide], the “LKB1 % Act. Increase” value in assay [1] is “B (B=399-2000%)”.

Consider `CCOP(=O)(OCC)C(C)S(=O)(=O)c1ccc(NC(=O)c2nc(-c3ccc(C)cc3)cnc2N)cc1` (stereo not shown) [SU20668-0505, diethyl 1-(4-(3-amino-6-p-tolylpyrazine-2-carboxamido)phenylsulfonyl)ethylphosphonate], for which the “LKB1 % Act. Increase” value in assay [1] is “A (A=>4000%)”.

As to `Cc1ccc(-c2cnc(N)c(C(=O)Nc3ccc(S(=O)(=O)NC4(C)COC4)cc3)n2)cc1` [SU20668-0510, 3-amino-N-(4-(N-(3-methyloxetan-3-yl)sulfamoyl)phenyl)-6-p-tolylpyrazine-2-carboxamide], the “LKB1 % Act. Increase” value in assay [1] is recorded as “B (B=399-2000%)”.

As to `CCP(=O)(CS(=O)(=O)c1ccc(NC(=O)c2nc(-c3ccc(C)cc3)cnc2N)cc1)OC` (stereo not shown) [SU20668-0514, methyl (4-(3-amino-6-p-tolylpyrazine-2-carboxamido)phenylsulfonyl)methyl(ethyl)phosphinate], the “LKB1 % Act. Increase” value in assay [1] was “B (B=399-2000%)”.

Turning to `COP(=O)(OC)C(C)S(=O)(=O)c1ccc(NC(=O)c2nc(-c3ccc(C)cc3)cnc2N)cc1` (stereo not shown) [SU20668-0516, dimethyl 1-(4-(3-amino-6-p-tolylpyrazine-2-carboxamido)phenylsulfonyl)ethylphosphonate], in assay [1], the “LKB1 % Act. Increase” value is given as “A (A=>4000%)”.

On to `CCO[P@@](C)(=O)CS(=O)(=O)c1ccc(NC(=O)c2nc(-c3ccc(C)cc3)cnc2N)cc1` [SU20668-0517, (R)-ethyl (4-(3-amino-6-p-tolylpyrazine-2-carboxamido)phenylsulfonyl)methyl(methyl)phosphinate], for which the “LKB1 % Act. Increase” value in assay [1] is listed as “B (B=399-2000%)”.

Turning to `CCO[P@](C)(=O)CS(=O)(=O)c1ccc(NC(=O)c2nc(-c3ccc(C)cc3)cnc2N)cc1` [SU20668-0518, (S)-ethyl (4-(3-amino-6-p-tolylpyrazine-2-carboxamido)phenylsulfonyl)methyl(methyl)phosphinate], in assay [1], the “LKB1 % Act. Increase” value is listed as “B (B=399-2000%)”.
